# Results published in PubChem BioAssay AID1996.
# Conditions: buffer; pH 7.4; 200.0 µM
row,Structure (SMILES),solubility kinetic [µg/mL]
1,O=C(Nc1ccc(Cl)cn1)c1cccc(OCc2ccccc2)c1,0.7
2,OC(CN1CCC(Cc2ccccc2)CC1)C(F)(F)F (stereo not given),> 43.1
3,O=C(CN1C(=O)NC2(CCCC2)C1=O)Nc1cccc(Cl)c1,> 48.3
4,COc1cccc(C2(O)C(=O)Nc3ccccc32)c1 (stereo not given),> 38.3
5,O=S1(=O)NC(=NCCOCCO)c2ccccc21,> 40.5
6,CCC(C)Nc1nc(N)c([N+](=O)[O-])c(NCCO)n1 (stereo not given),39.6
7,COc1cc(NC(=O)Cn2c([N+](=O)[O-])cnc2C)c(OC)cc1Cl,45.3
8,CCOc1ccccc1C(=O)OCC(=O)NCc1ccc2c(c1)OCO2,> 53.6
9,CCC1CCCCN1C(=O)CSc1nc(N)cc(=O)[nH]1 (stereo not given),42.2
10,NC(=O)c1cccc(NC(=O)Nc2ccc(Cl)cc2)c1,4.6
11,Fc1cc(F)c2nc(N3CCCC3)sc2c1,9.4
12,Cc1c(/C=N/NC(=O)c2ccc(Br)o2)cnn1C,> 46.7
13,O=C1CSC(c2ccccc2F)N1c1ccccc1F (stereo not given),3.2
14,O=[N+]([O-])c1ccc(Nc2ccccn2)c([N+](=O)[O-])c1,2.7
15,Br.C=CCN1C2=NCCCN2c2ccccc21,> 44.1
16,CC1CCN(C(=O)COC(=O)Cn2cnc3ccccc32)CC1,> 47.3
17,COC(=O)CNC(=O)COC(=O)/C=C/c1cccs1,> 42.5
18,CCOc1ccc(CC(=O)N/N=C(\C)c2cccnc2)cc1,> 44.6
19,Cn1c(=O)c(C(=O)NCCCc2ccccc2)c(O)c2ccccc21,< 0.4
20,COc1ccccc1NS(=O)(=O)c1ccc2[nH]c(=O)[nH]c2c1,> 47.9

row,Structure (SMILES),solubility kinetic [µg/mL]
1,CCOc1cc(Br)c(C(C)NC(=O)c2cccnc2)cc1OCC (stereo not given),> 59
2,CC(C)(C)C(=O)CSc1nc(N)cc(=O)[nH]1,33.1
3,CC(=O)c1sc(NC(=O)c2ccc(C(C)(C)C)cc2)nc1C,< 0.3
4,COc1cccc(NC(=O)COC(=O)CCC2CCCC2)c1,> 45.8
5,COc1ccc(CN(C)CC(=O)NC(C)c2ccccc2)c(OC)c1 (stereo not given),51.2
6,Cl.O=C(NC1CCN(Cc2ccccc2)CC1)c1ccccc1NS(=O)(=O)c1ccc(F)cc1,> 75.6
7,COC(=O)C1=C(C)NC(=O)NC1c1ccccc1Cl (stereo not given),18.5
8,O=C(O)/C=C/C(=O)NCCc1ccccc1,> 32.9
9,COc1ccccc1C(=O)NC(=O)CSc1nnc(C)s1,> 48.5
10,CC(C)CCOc1ccc(C(=O)C[N+]2(C)CCOCC2)cc1.[I-],38.4
11,O=C(Nc1cc(S(=O)(=O)Nc2ccccc2F)ccc1Cl)c1ccc(F)cc1F,2.5
12,CCOc1cccc2cc(C(=O)N3CCOCC3)c(=O)oc12,> 45.5
13,O=C(Nc1ccc2ccccc2n1)c1ccccc1Br,4.6
14,O=C(COC(=O)/C=C/c1ccc(Br)o1)Nc1cccc(S(=O)(=O)N2CCOCC2)c1,5.9
15,O=C(COc1ccc([N+](=O)[O-])cc1Cl)NCC1CCCO1 (stereo not given),> 47.2
16,COc1cc2c(cc1OC)C(c1ccc(O)cc1)NCC2 (stereo not given),> 42.8
17,O=C(O)C1CCCN(S(=O)(=O)Cc2ccccc2)C1 (stereo not given),37.7
18,CCOC(=O)/C(=C/c1ccc(OC(=O)c2ccncc2)cc1)C(C)=O,41.8
19,O=C(CN1C(=O)NC2(CCCCC2)C1=O)Nc1ccc2c(c1)CCC2,5.1
20,NC(=O)c1ccc(CN2CCc3ccccc3C2)cc1,34.5

row,Structure (SMILES),solubility kinetic [µg/mL]
1,CCN1CCN(c2ccc(NC(=O)c3cnccn3)cc2)CC1,> 46.7
2,CN1CCC(N(C)C(=O)Cc2ccccc2[N+](=O)[O-])CC1,> 43.7
3,O=C(NCCC(=O)N1CCN(C(=O)c2ccco2)CC1)c1ccccc1Cl,> 58.5
4,CCn1c(C)cc(C)c(C#N)c1=O,> 26.4
5,O=C(Nc1ccccc1Br)C1CCN(S(=O)(=O)c2cccs2)CC1,7.8
6,O=C(Nc1ccc(Br)cc1)c1ccccc1Br,7.3
7,C=CCSc1nsc(NC(=O)Nc2cccc(C(C)=O)c2)n1,1.9
8,Cc1ccc(C2(C)NC(=O)N(CC(=O)Nc3ccc4c(c3)CCC4)C2=O)cc1 (stereo not given),3.5
9,COc1ccc(/C=C/C(=O)NCCCN2CCOCC2)cc1,43.8
10,CCc1cccc(C)c1NC(=S)N(CCOC)C(C)c1ccco1 (stereo not given),25.8
11,Cc1nc(SCC(=O)N2CCN(c3ccccn3)CC2)c(C#N)c(C)c1C,41.8
12,CC(C)Oc1ccc(C(=O)OC(C)C(=O)NC2CCCCC2C)cc1 (stereo not given),4.4
13,O=C(NCc1ccc(F)cc1)c1ccncc1,34.2
14,COc1ccccc1C(=O)COC(=O)c1ccc(N(C)C)cc1,1.1
15,CCC1CCC/C1=N\NC(=O)c1ccoc1C (stereo not given),> 35.1
16,CC(C)(C)C(=O)Nc1ccc(-c2cnco2)cc1,> 36.6
17,CC(=O)C1=C(C)OC(N)=C(C#N)C1c1cc([N+](=O)[O-])ccc1Cl (stereo not given),41.9
18,CC(=O)c1ccc(NC(=S)N2CCCC2)cc1,35.4
19,CCCN(CC(=O)Nc1ccccc1OC)C(=O)c1ccncc1,> 49.1
20,Cl.O=C(NC12CC3CC(CC(C3)C1)C2)OCCNC1CCCCC1,> 53.5
